From patent publication US7763604B2, “Methods for administration of a farnesyl dibenzodiazepinone” (Thallion Pharma Ceuticals, Inc., priority 2005, dated 2010)

Columns and labels:
[1] = toxicity of 14-day continuous intravenous infusion in monkeys; format: in vivo; conditions: 14-day CIV
Procedure: (§1) Cynomolgus monkeys received continuous IV infusion over 14 days of Formula I at 5 mg/kg/day, 15 mg/kg/day, or 30 mg/kg/day. The drug was infused intravenously (24 hours/day) into the femoral vein at a dose rate of 2 ml/kg/hour for 14 consecutive days. Blood samples were removed from each monkey on Days 1, 2, 6, 10, and 15 of the treatment period. Monkeys were bled by venipuncture and samples were collected into tubes containing K2EDTA. On Day 1, samples were collected at 2, 6, and 12 hours after initiation of treatment. Additional samples were collected at 30 hours after the start of infusion (Day 2). On Days 6 and 10, samples were collected at approximately 6 hours after the bag changes. At the end of the 14 days of infusion, on Day 15, samples were collected at 1 hour prior to cessation of dose administration, and at 5 min, 30 min, 1 h, 2 h, 4 h, 8 h, and 24 h following cessation of dose administration.

[2] = system: rat glioma (C6) tumor xenograft; experiment: rat C6 glioblastoma subcutaneous tumor model, antitumor efficacy; format: in vivo, female athymic (nu/nu) nude mice
Procedure: The rat C6 glioblastoma antitumor efficacy study was performed at INSERM U318 (Grenoble, France). The rat C6 glioblastoma subcutaneous tumor model is based on the use of a rat C6 cell line obtained from a rat glial tumor induced by N-nitrosomethylurea (Benda et al. (1968), Science, vol 161, 370-371). These animal studies were done according to ethical guidelines of animal experimentation (Charte du comité d'éthique du CNRS, 2003) and the English “Guidelines for the welfare of animals in experimental neoplasia (Second Edition)” from the United Kingdom Coordinating Committee on Cancer Research (UKCCCR) (Workman et al. (1998), Br. J. Cancer, vol 77, no 1, 1-10). On each dosing day, Formula I stock solutions (24 and 40 mg/mL in 20% ethanol, 20% PEG-400 and 60% Tween 80) were diluted with sterile 5% dextrose in water (D5W) to prepare dosing solutions of 6 mg/mL and 10 mg/mL of Formula I in a vehicle consisting of 5% ethanol, 5% PEG-400, 15% Tween-80, and 75% D5W.
For the rat glioma antitumor efficacy study, female athymic (nu/nu) nude mice (6-7 weeks of age) were inoculated SC with 5×10^6 C6 cells (day 0). Tumor bearing animals were randomized (10 per group) when tumors were palpable (day 6). Group 1 (control group) received drug-free vehicle (5% ethanol, 5% PEG-400, 15% Tween-80, and 75% D5W) IP (5 mL/kg), once daily on days 6-18 (q1d×13). Group 2 received Formula I (6 mg/mL) IP at 20 mg/kg, once daily on days 6 to 13 and then at 10 mg/kg once daily on days 14 to 18. Group 3 received Formula I (6 mg/mL) SC at 30 mg/kg, once daily on days 6 to 13 and then at 15 mg/kg once daily on days 14 to 18. Group 4 received Formula I (10 mg/mL) IV at 100 mg/kg q1d×5 for 2 weeks. Each animal was euthanized when its tumor reached the predetermined endpoint size (˜2,500 mm^3) or at the end of the study (D18). Treatment period was over 13 days, from day 6 to day 18, post tumor cell inoculation. Tumor growth inhibition (TGI) was calculated on day 16 post tumor cell inoculation, at which time some animals from the vehicle control group had to be sacrificed due to tumor burden.
In this model and the models of Examples 3, 6 and 7, tumor growth was followed every other day by measuring tumor length (L) and width (W) using a calliper. Measurements were converted to tumor volumes (TV; mm^3) using the standard formula, TV=(L×W^2)/2. Tumor volume at day n was expressed as relative tumor volume (RTV) according to the following formula RTV=TVn/TV0, where TVn is the tumor volume at day n and TV0 is the tumor volume at day 0. The percentage of tumor growth inhibition (% TGI) was determined by 1−(mean RTV of treated group/mean RTV of control group)×100. […] Statistical analysis was calculated by the two-tailed unpaired t test using the Prism software. […]

[3] = pharmacokinetics of 14-day CIV infusion in monkeys; format: in vivo, Cynomolgus monkeys; conditions: for T1/2z: calculated at the end of treatment, mean
Procedure: as §1

[4] = acute toxicity, 24-hour CIV administration in monkeys; format: in vivo
[5] = human pharmacokinetic parameters extrapolated from allometric equations; conditions: estimated from allometric equations
Procedure: An analysis was performed to derive allometric equations for Formula I pharmacokinetic parameters using Formula I plasma concentration-time data from three species, including mouse, rat, and monkey, and to estimate human pharmacokinetic parameters from those allometric equations.
Plasma concentrations of Formula I were obtained from mice, rats, and monkeys following intravenous injection or continuous infusion. Formula I pharmacokinetic parameters in mice, rats, and monkeys were estimated using population pharmacokinetic analysis, a function of the software program NONMEM™ (version 5). Typical population pharmacokinetic parameters for Formula I in humans were extrapolated from allometric equations that were derived from pharmacokinetic parameters estimated in the three animal species.
Allometric equations for the pharmacokinetic parameters clearance (CL), volume of distribution (V1 and V2), and inter-compartmental clearance (Q) were derived. The population PK parameters of the compound of Formula I for humans were extrapolated from the allometric equations, and the estimated values are shown in Table 6. Simulated Formula I plasma concentration-time profiles in humans are shown in FIG. 13 and estimated end of infusion concentrations are provided in Table 7.

[6] = maximum tolerated dose and tolerability of bolus administration in mice; format: in vivo

With `CC(C)=CCC/C(C)=C/CC/C(C)=C/CN1C(=O)c2cccc(O)c2Nc2c(O)cc(O)cc21` [Formula I, 10-farnesyl-4,6,8-trihydroxy-dibenzodiazepin-11-one] as the molecule, how does the “degenerative changes in organs, including the infusion site” value [1] read?
Its value is “No degenerative changes”.

And the “effect on body weight, ocular condition, electrocardiographic activity and other parameters” value [1]?
The value was “no effect”.

What about the side effects [1] of the same molecule?
Its side effects is “inappetance and a moderate degree of regenerative anemia, were reversible”.

What about the compound associated toxicity ([1]; 5 to 30 mg/kg/day) of the same molecule?
Its compound associated toxicity is “no severe compound associated toxicity”.

What about the “Maximum body weight loss” value ([2]; IP 20 mg/kg (Q1D×8) followed by 10 mg/kg (Q1D×7), Day 13) of the same molecule?
The value was 15%.

What about the “tumor volume relative to the vehicle control” value ([2]; IV bolus 100 mg/kg (Q1D×5) over 2 weeks) of the same molecule?
The value was “No significant difference in tumor volume”.

And the body weight loss ([2]; IV group, 100 mg/kg (Q1D×5) over 2 weeks)?
Its body weight loss is “No significant body weight loss”.

And the “Maximum body weight loss” value ([2]; SC 30 mg/kg (Q1D×8) followed by 15 mg/kg (Q1D×7))?
The value was 11%.

What about the “fold increase in AUC between groups” value ([3]; 15 mg/kg/day versus 5 mg/kg/day) of the same molecule?
Its value is 3.4 fold.

And the “fold increase in AUC between groups” value ([3]; 30 mg/kg/day versus 15 mg/kg/day)?
Its value is 4.7 fold.

And the T1/2z ([3]; CIV 5 mg/kg/day)?
Its T1/2z is 12 h.

What about the T1/2z ([3]; CIV 15 mg/kg/day) of the same molecule?
The T1/2z was 8.3 h.

What about the T1/2z ([3]; CIV 30 mg/kg/day) of the same molecule?
Its T1/2z is 8.1 h.

What about the concentration at 14 days ([3]; cynomolgus monkey, plasma, 14-day IV continuous infusion, read-out: stable plasma concentrations above the therapeutic threshold) of the same molecule?
The concentration at 14 days was over 2000 nM.

And the tolerability ([4]; 35 mg/kg)?
The tolerability was “well tolerated”.

What about the tolerability ([4]; 70 mg/kg) of the same molecule?
Its tolerability is “well tolerated”.

And the Ke [5]?
Its Ke is 1.192 h⁻¹.

And the Q [5]?
The Q was 0.032 L/h/kg.

What about the “t1/2,α” value [5] of the same molecule?
The value was 30.5 min.

What about the “t1/2,β” value [5] of the same molecule?
The value was 13.8 h.

What about the tolerability finding ([6]; IP bolus dosing) of the same molecule?
Its tolerability finding is “some intestinal occlusion”.

What about the tolerability finding ([6]; SC bolus dosing) of the same molecule?
Its tolerability finding is “swelling and thickening of the skin”.
